From US12545653B2, “Compound as PPAR agonist and application thereof” (USA Elixiria Biotech Inc., priority 2019, dated 2026) come the findings set out here.

Where only a bound is given, the exact number is not on record here.

Data set [1] concerns MPTP-HCl Parkinson's disease model mice. Description: Parkinson's disease model (MPTP-HCl), beam traversal test. The following applies: MPTP-HCl/probenecid mice, 5 mg/kg body weight intraperitoneal daily, 35 days.
Description: Three month-old male wild type mice were used in the experiment. The treatment lasted for a total of 35 days. […] For all abovementioned groups, Motor skills were assessed on the 36th to 40th days after compound administration. Beam traversal test is a method commonly used in academia to detect movement coordination in animals with Parkinson's disease. […] The mice were first trained for 2 consecutive days, and taught to trained to traverse the length of the beam. On the day of the test, a mesh grid (1 cm squares) of corresponding width was placed over the beam surface leaving a ˜1 cm space between the grid and the beam surface. Animals were then videotaped while traversing the grid-surfaced beam for a total of five trials. An error was counted when, during a forward movement, a forelimb or hindlimb slipped through the grid. The number of errors made per step (referred to as “error per step scores”) was counted. An analysis of variance (ANOVA) and Dunnett post hoc comparison test are used to compare the significance of the differences between different groups of data. The difference is significant with P<0.05.
Another data set concerns APP/PS1 transgenic mice. Nature of the data set: Alzheimer's disease model, eight-arm radial water maze and brain gene expression. Type of data set: in vivo, mouse. The following applies: 30 days in food, 10 mg/kg body weight/day (donepezil 3 mg/kg body weight/day), 5 on the first day. From the text:
A common indicator used in academia in memory and dementia experiments is the number of errors in the water maze (reference memory). More errors mean poorer memory. On the last 3 days of dosing, eight-arm radial water maze was used by experimenters who were blind to drug treatment. As a classic experimental instrument, to detect slight deficits in learning and memory, the eight-arm water maze is more sensitive than not only Morris maze, but also Six-arm radial water maze. For details, see reference 8: Alamed J et al. Two-day radial-arm water maze learning and memory task; robust resolution of amyloid-related memory deficits in transgenic mice [J]. […] This experiment uses an eight-arm water maze built in accordance with the above literature. The eight-arm water maze is placed in a basin with an interior diameter of 102 cm. Each arm measures 30 cm long, 14.5 cm wide, and 40 cm high. Escape platform is located at the end of one of the arms. In the reference memory version of the task described here, the goal arm is held constant for all trials, with a different start arm on successive trials. On day one, mice received 12 trials, with trials alternating between visible and hidden platform. On day 2 and 3, mice received 12 additional trials but the platform was kept hidden throughout the trials. Entry into an incorrect arm was scored as a spatial reference error. Errors were averaged into three trial blocks, with four blocks per day, e.g., the first block (the 1st to 3rd trial), the second block (the 4th to 6th trial), and so on. […]. The line charts were made with the number of blocks as the abscissa and the average of the number of errors as the ordinate. At the end of the experiments, the cerebral cortex and hippocampus of the mice were removed, RNA was extracted, and the expression of many genes was analyzed by semi-quantitative RT-PCR. […] The difference is significant with P<0.05.

A further data set relates to HEK 293T cells. Nature of the data set: Inhibition of reactive oxygen species production (ROS-Glo H2O2 Assay). Type of data set: cell-based, human. Particulars: 18 hours incubation; for EC50: Homo sapiens, HEK-293T, 18 h; for inhibition of active oxygen production (up to), compared to the DMSO control: 0-30 micromole/L. As to the method:
Mitochondrial reactive oxygen species-induced oxidative stress is the source of many diseases. This experiment is used to test whether the carbonyl-containing cyclic compounds provided by the present invention can reduce the production of reactive oxygen species. HEK 293T cells were divided into 96-well plates at 5000 cells per well, cultured in a 37° C. carbon dioxide incubator with serum-free Duchenne's Modified Eagle's Medium (DMEM) for 6 hours, and then representatives for compounds listed in Table 2 and 3 were added to a final concentration of 0, 0.1, 0.3, 1, 3, 10, 30 micromole/L, with each concentration in triplicate. After 18 hours of incubation, the reactive oxygen species detection kit (ROS-Glo™ H2O2 Assay) and the GloMax microplate fluorescence detector (Promega, USA) were used to detect reactive oxygen species production. At the same time, pioglitazone was used as a control. The amount of fluorescence is positively related to the production of reactive oxygen species. A three-parameter Sigmoid function curve was used to fit the obtained data. The abscissa represents the logarithmic value of the concentration, and the ordinate represents the percentage of reduced reactive oxygen species production relative to those of the control. Then EC50 value was calculated with professional software.

The test system of another data set is db−/db− mice. Description: Diabetic peripheral neuropathy model, Von Frey threshold, sciatic nerve ROS and MDA. Particulars: in food 10 mg/kg body weight/day (pregabalin 30 mg/kg body weight/day). Type of data set: in vivo, mouse. As to the method:
Male 5-6 week-old male db^−/db^− mice were used in the experiment, and their normoglycemic heterozygous littermates were used as controls. db^−/db^− is a commonly used type 2 diabetes animal model. The compounds was dissolved in DMSO and mixed into food pellets. The animals were given ad libitum access to the pellets, beginning from 8 to 9 weeks of age for 10 weeks. […] The method for detecting mice hindlimb hypersensitivity is performed using Von Frey filaments. […] The difference is significant with P<0.05. The increase of mitochondrial reactive oxygen species (ROS) in the sciatic nerve of mice, which in turn leads to the increase of intracellular malondialdehyde (MDA), is the etiology of this type of neuropathic pain. The efficacy of compound to treat the root cause of the disease was evaluated by measurement of the levels of MDA and mitochondrial ROS from the sciatic nerves.

The next data set deals with klotho gene promoter. Description: In vitro transcriptional activity of klotho gene (KL-Luc-3 luciferase cell line). The data set is classed as cell-based. The following applies: 16 h, KL-Luc-3 cells, 16 hours incubation. The text has this:
The activities of these carbonyl-containing cyclic compounds are indicated by the increased expression of klotho gene. […] The present invention retains the DNA fragment of the klotho gene promoter, but replaces the DNA sequence of the coding region of the klotho gene with those of luciferase, so that the degree of activation of the klotho gene promoter and the expression of the klotho gene will be sensitively determined by detecting the luciferase luminescence signal.
Klotho is an important downstream gene of PPARγ pathway. The following experiments tested the properties of the compounds in Table 2 and 3 to activate the klotho gene in vitro. First, a stable cell line, KL-Luc, was constructed. The klotho gene carried by the cell line retained the DNA sequence of klotho gene promoter, but the coding sequence of the klotho gene was replaced with luciferase. KL-Luc fragment includes a promoter sequence of the klotho gene (a DNA region of 18,000 base pairs in length upstream of the transcription start site of the gene) and a luciferase-encoding sequence. To construct the KL-Luc sequence containing lentiviral vector, the KL-Luc fragment was cloned into the pDONR vector using BP recombinase, so that the target fragment had attL recombination sites on both sides. Then the KL-Luc fragment was transferred from the pDONR vector to a lentiviral vector (without exogenous promoter) pLenti6/BLOCK-IT-DEST. The constructed lentiviral vector of the target fragment was then transfected into HEK293T cells, and then the KL-Luc gene lentiviral expression vector and the […] were co-transfected into HEK293T cells to perform lentiviral packaging. The virus was harvested, and virus titer was calculated. And the lentivirus was used to infect target cells. The stable strains were screened by adding drugs. Finally, monoclonal cell lines were selected from polyclonal cells by cell cloning. The effective luciferase expression of each monoclonal cell line was determined by quantitative polymerase chain reaction (qPCR). The inventors chose a third monoclonal cell line (KL-Luc-3) to continue the compound screening. The compounds of interest were the compounds in Table 2 and 3. At the same time, rosiglitazone and pioglitazone were used as a control. KL-Luc-3 cells were divided into 96-well plates at 5000 cells in 80 microL per well, cultured in a 37° C. carbon dioxide incubator with serum-free Duchenne's Modified Eagle's Medium (DMEM) for 6 hours, and then the compounds were added to a final concentration of 0, 0.1, 0.3, 1, 3, 10, 30 micromole/L, with each concentration in triplicate. After 16 hours of incubation, the SteadyLite (PerkinElmer, Waltham, MA) and the GloMax Microplate Luminometer (Promega, USA) were used for quantitation of luciferase activity. The amount of luminescence emitted from each well is positively related to the transcriptional activity of the klotho promoter. A three-parameter Sigmoid function curve was used to fit the obtained data. The abscissa represents the logarithmic value of the concentration, and the ordinate represents the percentage of the activity relative to those of the control. […] In Statistical analysis, the coefficient of variation is used to measure the robustness and repeatability of the experiment. […] The difference is significant with P<0.05. EC50 is a parameter of its activity. The lower the EC50 value, the higher the activity of corresponding compound.

Another data set has as its target T1, PPARγ (Homo sapiens, UniProt P37231).
T1 construct: expressed in transfected cells; host or cells: HEK 293 T cells
T1 sequence (P37231 1-505): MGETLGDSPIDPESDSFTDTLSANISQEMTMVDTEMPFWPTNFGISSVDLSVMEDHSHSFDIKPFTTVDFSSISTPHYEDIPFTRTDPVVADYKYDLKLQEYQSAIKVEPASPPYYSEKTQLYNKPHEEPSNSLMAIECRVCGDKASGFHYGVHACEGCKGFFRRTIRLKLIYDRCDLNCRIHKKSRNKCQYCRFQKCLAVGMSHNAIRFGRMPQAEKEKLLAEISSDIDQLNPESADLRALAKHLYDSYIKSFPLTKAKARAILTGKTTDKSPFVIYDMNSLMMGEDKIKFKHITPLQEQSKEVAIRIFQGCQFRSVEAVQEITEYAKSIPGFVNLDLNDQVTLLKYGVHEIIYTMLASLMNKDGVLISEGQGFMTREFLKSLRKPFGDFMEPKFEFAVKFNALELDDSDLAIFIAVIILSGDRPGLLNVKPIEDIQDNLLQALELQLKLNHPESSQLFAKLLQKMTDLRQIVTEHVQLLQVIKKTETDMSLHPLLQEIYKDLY
Description: In vitro transcriptional activity of PPARγ gene (PPRE-luciferase reporter, HEK 293 T cells). The data set is classed as cell-based. The following applies: HEK 293 T cells transfected with PPARγ expression and PPRE-luc plasmids, 21 hours; read-out: EC50 of PPARγ gene activation. The text has this:
In this experiment, the PPARγ gene was used as target gene to detect the in vitro transcription activity of the compounds. The compounds of interest were detected was first dissolved with dimethyl sulfoxide (DMSO). […] First two plasmids were constructed: PPARγ protein expression plasmid and luciferase reporter plasmid. They are both from the lentiviral plasmid pLV-CMVIE-ZsGreen-Puro, whose DNA sequence contains the cytomegalovirus immediate early (CMVie) promoter, ZsGreen and Puro dual reporter. The PPARγ expression plasmid pLV-CMVIE-PPAR[…]-ZsGreen-Puro was constructed by cloning full-length coding sequences of the pertinent receptors into pHBLV-CMVIE-ZsGreen-Puro vector. To construct the luciferase (luc) reporter plasmid pLV-PPRE-luc-ZsGreen-Puro, the CMVie promoter in plasmid pHBLV-CMVIE-ZsGreenPuro was first replaced by a peroxisome proliferator responsive element (PPRE) containing fragments comprised the nucleotide sequence 50-[…], repeated four times in tandem, to generate a new plasmid, at a multiple cloning site of which the luc gene was then inserted. […] The compounds used for screening are representatives for compounds listed in Table 2, and Tables 3 of the present invention. […] Cells were distributed in 10-cm tissue culture plates at a density of 5.5 million cells per plate, and then transfected with the luciferase reporter plasmid (6 nanogram/plate) and the PPARγ expression plasmid (18 nanogram/plate). Cells were cultured for 6 hours. […] Then the cells were distributed in 96-well plates at a density of 20,000 cells per well. After incubation for 6 h, compounds or control with different concentration were placed into each well, resulting in the finical concentration of […] with each concentration in triplicate. Twenty-one hours later, promoter activation was detected by the addition of SteadyLite (PerkinElmer, Waltham, MA) and GloMax 96 Microplate Luminometer (Promega, Madison, WI). The amount of Luminometer emitted from each well is positively correlated with the expression of PPARγ gene. A three-parameter Sigmoid function curve was used to fit the obtained data. The abscissa represents the logarithmic value of the concentration, and the ordinate represents the percentage of PPARγ gene activation relative to those of the control. […] In Statistical analysis, the coefficient of variation is used to measure the robustness and repeatability of the experiment. […] The difference is significant with P<0.05. EC50 is a parameter of its activity.
In general terms: In a reporter assay the amount or activity of a reporter protein is the signal.

The nature of data set [2]: Blood-brain barrier permeability: brain concentration after a single injection. The data set is classed as in vivo, rat. Particulars: for AUC(0-t): male, rat, in vivo, ip, 10 mg/kg. As to the method:
The blood-brain barrier permeability of carbonyl-containing cyclic compounds is determined in in vivo studies. Healthy male rats used in the study were divided into compound group and control group. […] The brains were dissected, heated immediately at boiling water for 2 min, homogenized with methanol, and centrifuged. The upper layer was collected and dried under vacuum to remove solvents, and then resuspended in methanol. The above samples are filtered through a 0.45 micron nylon membrane, and then 20 microL of sample were load into a high-performance liquid chromatographic (HPLC) system (Model LC-16P, Shimadzu, Japan) to perform quantitative analysis.

Data set [3] deals with dIoN-CCI rat model of trigeminal neuropathic pain. Description: Trigeminal neuralgia model (dIoN-CCI), Von Frey mechanical threshold. The following applies: dIoN-CCI rats.
Description: A common rat model of trigeminal neuralgia is a chronic compression injury model (CCI) caused by ligation of the infraorbital nerve (IoN). In the present study, an improved rat model of trigeminal neuropathic pain was used, in which CCI is induced by ligation of distal segment of IoN (dIoN). Wild type male Sprague-Dawley rats with body weight 250 to 260 grams underwent dIoN-CCI surgery experiments. The mechanical threshold of pain in rats without surgery experiments will exceed 6 grams. If the dIoN-CCI surgery is successful, it will reduce the pain threshold to less than 2 grams.
The mice were divided into the following 11 groups with 4 to 5 mice in each group. The formulation used for transdermal treatment is cream. […] The compound administration of each group starts on the third day after successful dIoN-CCI surgery. […] The method for detecting rat facial hypersensitivity is performed using Von Frey filaments. An analysis of variance (ANOVA) and Dunnett post hoc comparison test are used to compare the significance of the differences between different groups of data. The difference is significant with P<0.05.
Where [4] appears, read: compared with healthy control group.

`CCc1ccc(CCCCc2ccc3c(c2)C(=O)CC3)cc1` [ELB00825, 6-(4-(4-ethylphenyl)butyl)-2,3-dihydro-1H-inden-1-one]: in data set [1], the “number of errors per step in beam traversal test compared with disease control group” value is listed as “significantly lower”. In the data set with APP/PS1 transgenic mice, the “number of errors in water maze on the third day” value is given as “comparable to that of ELB00824”. The EC50 (commonly the concentration at which the effect is half-maximal) with HEK 293T cells is less than 10 µM. In addition, in the data set with db−/db− mice (setting [4]), the “level of MDA in the sciatic nerve after 10 week treatment” value was “reduced” and the “level of mitochondrial ROS in the sciatic nerve after 10 week treatment” value was “reduced”. Besides, the “mechanical pain threshold after 10 week treatment” value in the data set with db−/db− mice (compared with normal control group) is given as “significantly improved”.

Take `CCc1cccc(CC/C=C/c2ccc3c(c2)C(=O)CC3)c1` [ELB001203, 6-((1E)-4-(3-ethylphenyl)but-1-en-1-yl)-2,3-dihydro-1H-inden-1-one]: the results for the concentration for a half-maximal effect (EC50) with HEK 293T cells, in the data set with klotho gene promoter and at PPARγ were less than 3 µM, less than 9.7 µM and less than 6.4 µM, respectively.

With `CCc1ccc(CCOc2ccc(CC3SC(=O)NC3=O)cc2)nc1` (stereo not drawn) [pioglitazone, reference compound], the AUC(0-t) (usually the area under the concentration-time curve up to a stated or last time point) in data set [2] (AUC0-6 h) is 1510 ng·h/mL. In data set [2] (AUC0-24 h), the exposure AUC(0-t) turned out to be 3520 ng·h/mL. The “time to maximum brain concentration (Tmax)” value in data set [2] (rat brain, 10 mg/kg intraperitoneal, single injection) was 1 h. Further, in the data set with HEK 293T cells, the “inhibition of active oxygen production (up to), compared to the DMSO control” value is “up to 42%” and the midpoint of the response, the EC50, lay at 0.7 µM. The “minimum effective anti-allodynic dose” value in data set [3] (oral) is listed as 300 mg/kg. The “mechanical threshold 2 hours after oral administration” value in data set [3] (oral 300 mg/kg body weight, Von Frey) was 4.9 ± 0.9 g.

On to `CN(CCOc1ccc(CC2SC(=O)NC2=O)cc1)c1ccccn1` (stereo not drawn) [rosiglitazone, reference compound], for which the AUC(0-t) in data set [2] (AUC0-6 h) stood at 774 ng·h/mL; in data set [2] (AUC0-24 h), 1930 ng·h/mL. Further, the “inhibition of active oxygen production (up to), compared to the DMSO control” value in the data set on HEK 293T cells is “up to 58%”. Also, the half-maximal effective concentration (EC50) stood at 2.5 µM in the data set with HEK 293T cells and 9.7 µM in the data set on klotho gene promoter.
